Assay results published in patent publication US20200339625A1, “NOVEL RADIOMETAL-BINDING COMPOUNDS FOR DIAGNOSIS OR TREATMENT OF PROSTATE SPECIFIC MEMBRANE ANTIGEN-EXPRESSING CANCER” (PROVINCIAL HEALTH SERVICES AUTHORITY, priority 2017, published 2020).

Legend:
[1] = system: mice bearing PSMA-expressing LNCAP cancer xenografts; test: Biodistribution of 68Ga-labeled compounds; type: in vivo
Protocol: (§1) Imaging and biodistribution experiments were performed using NODSCID 1L2RyKO male mice. Mice were anesthetized by inhalation with 2% isoflurane in oxygen, and implanted subcutaneously with 1×10^7 LNCaP cells behind left shoulder. Mice were imaged or used in biodistribution studies when the tumor grew up to reach 5-8 mm in diameter during 5-6 weeks.
For biodistribution studies, the mice were injected with the radiotracer as described above. At predetermined time points (1 or 3 h), the mice was anesthetized with 2% isoflurane inhalation, and euthanized by CO2 inhalation. Blood was withdrawn immediately from the heart, and the organs/tissues of interest were collected. The collected organs/tissues were weighed and counted using an automatic gamma counter. The uptake in each organ/tissue was normalized to the injected dose using a standard curve, and expressed as the percentage of the injected dose per gram of tissue (% ID/g).

[2] = system: mice bearing LNCaP tumor xenografts; test: PET/CT imaging of 68Ga-labeled compounds; type: in vivo; conditions: for blood retention (qualitative): PET/CT images at 1 h and 3 h post-injection, comparison within the figure
Protocol: 2.17 PET/CT Imaging and Biodistribution
as §1
PET imaging experiments were conducted using Siemens Inveon micro PET/CT scanner. Each tumor bearing mouse was injected 6-8 MBq of 68Ga-labeled tracer through the tail vein under anesthesia (2% isoflurane in oxygen). The mice were allowed to recover and roam freely in their cage. After 50 min, the mice were sedated again with 2% isoflurane in oxygen inhalation and positioned in the scanner. A 10-min CT scan was conducted first for localization and attenuation correction after segmentation for reconstructing the PET images. Then, a 10-min static PET imaging was performed to determined uptake in tumor and other organs. The mice were kept warm by a heating pad during acquisition. For imaging studies acquired at 3 h post-injection (p.i.), the mice were placed in the micro PET/CT scanner at 170 min p.i. Then, the CT acquisitions were conducted as described above, a 15-min static PET imaging was performed to determined uptake in tumor and other organs.

Cc1ccc(CCCC(=O)NCC(=O)N[C@@H](CCCCNC(=O)CN2CCN(CC(=O)[O-])CCN(CC(=O)[O-])CCN(CC(=O)[O-])CC2)C(=O)NC[C@H]2CC[C@H](C(=O)N[C@@H](Cc3ccc4ccccc4c3)C(=O)NCCCC[C@H](NC(=O)N[C@@H](CCC(=O)O)C(=O)O)C(=O)O)CC2)cc1.[68Ga+3] [^68Ga-HTK03090]
Adrenal glands uptake ([1]; 1 h post-injection): 3.99 ± 1.94 % ID/g | Blood uptake ([1]; 1 h post-injection): 16.8 ± 2.14 % ID/g | Bone uptake ([1]; 1 h post-injection): 0.71 ± 0.10 % ID/g | Brain uptake ([1]; 1 h post-injection): 0.20 ± 0.02 % ID/g | Fat uptake ([1]; 1 h post-injection): 1.87 ± 0.80 % ID/g | Heart uptake ([1]; 1 h post-injection): 3.95 ± 0.72 % ID/g | Intestine uptake ([1]; 1 h post-injection): 1.14 ± 0.13 % ID/g | Kidneys uptake ([1]; 1 h post-injection): 24.3 ± 3.03 % ID/g | Lacrimal uptake ([1]; 1 h post-injection): 0.16 ± 0.07 % ID/g | Liver uptake ([1]; 1 h post-injection): 3.37 ± 0.85 % ID/g | Lungs uptake ([1]; 1 h post-injection): 7.68 ± 1.33 % ID/g | Muscle uptake ([1]; 1 h post-injection): 1.23 ± 0.15 % ID/g | Pancreas uptake ([1]; 1 h post-injection): 1.36 ± 0.22 % ID/g | Salivary uptake ([1]; 1 h post-injection): 2.48 ± 0.36 % ID/g | Seminal uptake ([1]; 1 h post-injection): 0.90 ± 0.15 % ID/g | Spleen uptake ([1]; 1 h post-injection): 2.00 ± 0.34 % ID/g | Stomach uptake ([1]; 1 h post-injection): 0.59 ± 0.13 % ID/g | Tail uptake ([1]; 1 h post-injection): 3.77 ± 0.91 % ID/g | Testes uptake ([1]; 1 h post-injection): 1.95 ± 0.20 % ID/g | Thyroid uptake ([1]; 1 h post-injection): 3.36 ± 0.24 % ID/g | Tumor uptake ([1]; 1 h post-injection): 8.54 ± 0.74 % ID/g | Tumor:Blood ratio ([1]; 1 h post-injection): 0.52 ± 0.10 | Tumor:Muscle ratio ([1]; 1 h post-injection): 7.09 ± 1.37 | Urine uptake ([1]; 1 h post-injection): 21.5 ± 9.93 % ID/g | Adrenal glands uptake ([1]; 3 h post-injection): 2.89 ± 0.28 % ID/g | Blood uptake ([1]; 3 h post-injection): 13.6 ± 1.23 % ID/g | Bone uptake ([1]; 3 h post-injection): 0.64 ± 0.03 % ID/g | Brain uptake ([1]; 3 h post-injection): 0.16 ± 0.02 % ID/g | Fat uptake ([1]; 3 h post-injection): 1.30 ± 0.13 % ID/g | Heart uptake ([1]; 3 h post-injection): 3.00 ± 0.41 % ID/g | Intestine uptake ([1]; 3 h post-injection): 0.98 ± 0.16 % ID/g | Kidneys uptake ([1]; 3 h post-injection): 30.0 ± 8.66 % ID/g | Lacrimal uptake ([1]; 3 h post-injection): 0.10 ± 0.13 % ID/g | Liver uptake ([1]; 3 h post-injection): 2.73 ± 0.90 % ID/g | Lungs uptake ([1]; 3 h post-injection): 6.00 ± 0.88 % ID/g | Muscle uptake ([1]; 3 h post-injection): 1.04 ± 0.12 % ID/g | Pancreas uptake ([1]; 3 h post-injection): 1.27 ± 0.13 % ID/g | Salivary uptake ([1]; 3 h post-injection): 2.15 ± 0.37 % ID/g | Seminal uptake ([1]; 3 h post-injection): 0.89 ± 0.05 % ID/g | Spleen uptake ([1]; 3 h post-injection): 1.93 ± 0.55 % ID/g | Stomach uptake ([1]; 3 h post-injection): 0.63 ± 0.12 % ID/g | Tail uptake ([1]; 3 h post-injection): 3.75 ± 1.53 % ID/g | Testes uptake ([1]; 3 h post-injection): 2.08 ± 0.42 % ID/g | Thyroid uptake ([1]; 3 h post-injection): 2.76 ± 0.21 % ID/g | Tumor uptake ([1]; 3 h post-injection): 16.9 ± 3.16 % ID/g | Tumor:Blood ratio ([1]; 3 h post-injection): 1.25 ± 0.32 | Tumor:Muscle ratio ([1]; 3 h post-injection): 16.6 ± 4.11 | Urine uptake ([1]; 3 h post-injection): 53.9 ± 14.6 % ID/g | change of tumor uptake from 1 h to 3 h post-injection ([2]; PET/CT images): increases over time | blood retention (qualitative) [2]: significantly higher blood retention

O=C([O-])CN1CCN(CC(=O)[O-])CCN(CC(=O)NCC2CCC(C(=O)NC(Cc3ccc4cc5ccccc5cc4c3)C(=O)NCCCCC(NC(=O)NC(CCC(=O)O)C(=O)O)C(=O)O)CC2)CCN(CC(=O)[O-])CC1.[68Ga+3] (stereo not drawn) [^68Ga-HTK03027]
Adrenal glands uptake ([1]; 1 h post-injection): 3.55 ± 2.33 % ID/g | Blood uptake ([1]; 1 h post-injection): 1.56 ± 0.57 % ID/g | Bone uptake ([1]; 1 h post-injection): 0.70 ± 0.33 % ID/g | Brain uptake ([1]; 1 h post-injection): 0.06 ± 0.03 % ID/g | Fat uptake ([1]; 1 h post-injection): 1.03 ± 0.67 % ID/g | Heart uptake ([1]; 1 h post-injection): 0.56 ± 0.24 % ID/g | Intestine uptake ([1]; 1 h post-injection): 0.44 ± 0.12 % ID/g | Kidneys uptake ([1]; 1 h post-injection): 85.6 ± 73.5 % ID/g | Lacrimal uptake ([1]; 1 h post-injection): 1.00 ± 0.56 % ID/g | Liver uptake ([1]; 1 h post-injection): 0.46 ± 0.10 % ID/g | Lungs uptake ([1]; 1 h post-injection): 1.66 ± 0.67 % ID/g | Muscle uptake ([1]; 1 h post-injection): 0.48 ± 0.37 % ID/g | Pancreas uptake ([1]; 1 h post-injection): 0.57 ± 0.20 % ID/g | Salivary uptake ([1]; 1 h post-injection): 1.86 ± 0.91 % ID/g | Seminal uptake ([1]; 1 h post-injection): 10.6 ± 10.9 % ID/g | Spleen uptake ([1]; 1 h post-injection): 3.36 ± 2.54 % ID/g | Stomach uptake ([1]; 1 h post-injection): 0.17 ± 0.10 % ID/g | Tail uptake ([1]; 1 h post-injection): 0.98 ± 0.38 % ID/g | Testes uptake ([1]; 1 h post-injection): 0.56 ± 0.18 % ID/g | Thyroid uptake ([1]; 1 h post-injection): 0.76 ± 0.33 % ID/g | Tumor uptake ([1]; 1 h post-injection): 13.3 ± 5.44 % ID/g | Tumor:Blood ratio ([1]; 1 h post-injection): 8.57 ± 2.83 | Tumor:Muscle ratio ([1]; 1 h post-injection): 35.0 ± 18.7 | Tumor:kidney ratio ([1]; 1 h post-injection): 0.27 ± 0.20 | Urine uptake ([1]; 1 h post-injection): 844 ± 645 % ID/g | excretion pathway ([2]; PET/CT images): excreted mainly via the renal pathway | tumor uptake (qualitative comparison) ([2]; PET/CT images, compounds of FIG. 13): comparable

O=C([O-])CN1CCN(CC(=O)[O-])CCN(CC(=O)NCCCC[C@H](NC(=O)CNC(=O)CCCc2ccc(Cl)cc2)C(=O)NC[C@H]2CC[C@H](C(=O)N[C@@H](Cc3ccc4ccccc4c3)C(=O)NCCCC[C@H](NC(=O)N[C@@H](CCC(=O)O)C(=O)O)C(=O)O)CC2)CCN(CC(=O)[O-])CC1.[68Ga+3] [^68Ga-HTK03055]
Adrenal glands uptake ([1]; 1 h post-injection): 5.51 ± 1.56 % ID/g | Blood uptake ([1]; 1 h post-injection): 22.1 ± 2.04 % ID/g | Bone uptake ([1]; 1 h post-injection): 1.59 ± 0.44 % ID/g | Brain uptake ([1]; 1 h post-injection): 0.29 ± 0.04 % ID/g | Fat uptake ([1]; 1 h post-injection): 2.20 ± 0.41 % ID/g | Heart uptake ([1]; 1 h post-injection): 5.20 ± 0.59 % ID/g | Intestine uptake ([1]; 1 h post-injection): 1.52 ± 0.21 % ID/g | Kidneys uptake ([1]; 1 h post-injection): 31.1 ± 4.40 % ID/g | Lacrimal uptake ([1]; 1 h post-injection): 1.82 ± 1.46 % ID/g | Liver uptake ([1]; 1 h post-injection): 3.35 ± 1.08 % ID/g | Lungs uptake ([1]; 1 h post-injection): 8.37 ± 1.10 % ID/g | Muscle uptake ([1]; 1 h post-injection): 1.60 ± 0.19 % ID/g | Pancreas uptake ([1]; 1 h post-injection): 2.02 ± 0.32 % ID/g | Salivary uptake ([1]; 1 h post-injection): 3.87 ± 0.70 % ID/g | Seminal uptake ([1]; 1 h post-injection): 1.19 ± 0.18 % ID/g | Spleen uptake ([1]; 1 h post-injection): 3.05 ± 0.63 % ID/g | Stomach uptake ([1]; 1 h post-injection): 0.62 ± 0.09 % ID/g | Tail uptake ([1]; 1 h post-injection): 4.42 ± 0.76 % ID/g | Testes uptake ([1]; 1 h post-injection): 2.54 ± 0.34 % ID/g | Thyroid uptake ([1]; 1 h post-injection): 4.20 ± 0.53 % ID/g | Tumor uptake ([1]; 1 h post-injection): 17.2 ± 1.67 % ID/g | Tumor:Blood ratio ([1]; 1 h post-injection): 0.78 ± 0.04 | Tumor:Muscle ratio ([1]; 1 h post-injection): 10.8 ± 1.15 | Tumor:kidney ratio ([1]; 1 h post-injection): 0.56 ± 0.06 | Urine uptake ([1]; 1 h post-injection): 14.6 ± 10.9 % ID/g | Adrenal glands uptake ([1]; 3 h post-injection): 6.45 ± 1.03 % ID/g | Blood uptake ([1]; 3 h post-injection): 17.4 ± 1.15 % ID/g | Bone uptake ([1]; 3 h post-injection): 2.11 ± 0.62 % ID/g | Brain uptake ([1]; 3 h post-injection): 0.28 ± 0.06 % ID/g | Fat uptake ([1]; 3 h post-injection): 2.12 ± 0.69 % ID/g | Heart uptake ([1]; 3 h post-injection): 3.89 ± 0.40 % ID/g | Intestine uptake ([1]; 3 h post-injection): 1.29 ± 0.18 % ID/g | Kidneys uptake ([1]; 3 h post-injection): 35.6 ± 7.23 % ID/g | Lacrimal uptake ([1]; 3 h post-injection): 4.14 ± 3.82 % ID/g | Liver uptake ([1]; 3 h post-injection): 2.96 ± 0.56 % ID/g | Lungs uptake ([1]; 3 h post-injection): 7.50 ± 1.05 % ID/g | Muscle uptake ([1]; 3 h post-injection): 1.26 ± 0.18 % ID/g | Pancreas uptake ([1]; 3 h post-injection): 1.74 ± 0.30 % ID/g | Salivary uptake ([1]; 3 h post-injection): 3.57 ± 1.07 % ID/g | Seminal uptake ([1]; 3 h post-injection): 1.07 ± 0.12 % ID/g | Spleen uptake ([1]; 3 h post-injection): 3.07 ± 0.78 % ID/g | Stomach uptake ([1]; 3 h post-injection): 0.59 ± 0.13 % ID/g | Tail uptake ([1]; 3 h post-injection): 3.52 ± 0.65 % ID/g | Testes uptake ([1]; 3 h post-injection): 2.63 ± 0.49 % ID/g | Thyroid uptake ([1]; 3 h post-injection): 3.40 ± 0.56 % ID/g | Tumor uptake ([1]; 3 h post-injection): 30.1 ± 3.12 % ID/g | Tumor:Blood ratio ([1]; 3 h post-injection): 1.75 ± 0.28 | Tumor:Muscle ratio ([1]; 3 h post-injection): 24.5 ± 5.08 | Tumor:kidney ratio ([1]; 3 h post-injection): 0.88 ± 0.22 | Urine uptake ([1]; 3 h post-injection): 33.8 ± 22.3 % ID/g | change of tumor uptake from 1 h to 3 h post-injection ([2]; PET/CT images): uptake in tumors increases over time | blood retention (qualitative) [2]: some extent of blood retention
